This is an account of results in US6787532B2, “Formulation containing anti-inflammatory androstane derivatives” (SmithKline Beecham Corporation, priority 2000, dated 2004).

Series [1] addresses T1, glucocorticoid receptor (GR) (Homo sapiens, UniProt P04150). The series can be described thus: Transactivation (GR): A549 cells with renilla luciferase reporter under glucocorticoid response elements. Format: cell-based. The note with it: renilla luciferase GRE reporter, read-out: Transactivation (GR) ED50. The text has this: (§1) The glucocorticoid receptor (GR) can function in at least two distinct mechanisms, by upregulating gene expression through the direct binding of GR to specific sequences in gene promotors, and by downregulating gene expression that is being driven by other transcription factors (such as NFκB or AP-1) through their direct interaction with GR.
(§2) The first cell line contains the firefly luciferase reporter gene under the control of a synthetic promoter that specifically responds to activation of the transcription factor NFκB when stimulated with TNFα. The second cell line contains the renilla luciferase reporter gene under the control of a synthetic promotor that comprises 3 copies of the consensus glucocorticoid response element, and which responds to direct stimulation by glucocorticoids. Simultaneous measurement of transactivation and transrepression was conducted by mixing the two cell lines in a 1:1 ratio in 96 well plate (40,000 cells per well) and growing overnight at 37° C. Test compounds were dissolved in DMSO, and added to the cells at a final DMSO concentration of 0.7%. After incubation for 1 h 0.5 ng/ml TNFα (R&D Systems) was added and after a further 15 hours at 37° C., the levels of firefly and renilla luciferase were measured using the Packard Firelite kit following the manufacturers' directions. Dose response curves were constructed from which EC50 values were determined.
Background: In a reporter assay the amount or activity of a reporter protein is the signal.

Series [2] has as its target T1, glucocorticoid receptor (GR). The series can be described thus: Transrepression (NFκB): A549 cells with firefly luciferase NFκB reporter, TNFα stimulated. Format: cell-based. The note with it: 0.5 ng/ml TNFα, read-out: Transrepression (NFκB) ED50.
From the text: as §1, §2

Series [3] has as its target T2, glucocorticoid receptor (Homo sapiens, UniProt P04150).
T2 sequence (P04150 1-777): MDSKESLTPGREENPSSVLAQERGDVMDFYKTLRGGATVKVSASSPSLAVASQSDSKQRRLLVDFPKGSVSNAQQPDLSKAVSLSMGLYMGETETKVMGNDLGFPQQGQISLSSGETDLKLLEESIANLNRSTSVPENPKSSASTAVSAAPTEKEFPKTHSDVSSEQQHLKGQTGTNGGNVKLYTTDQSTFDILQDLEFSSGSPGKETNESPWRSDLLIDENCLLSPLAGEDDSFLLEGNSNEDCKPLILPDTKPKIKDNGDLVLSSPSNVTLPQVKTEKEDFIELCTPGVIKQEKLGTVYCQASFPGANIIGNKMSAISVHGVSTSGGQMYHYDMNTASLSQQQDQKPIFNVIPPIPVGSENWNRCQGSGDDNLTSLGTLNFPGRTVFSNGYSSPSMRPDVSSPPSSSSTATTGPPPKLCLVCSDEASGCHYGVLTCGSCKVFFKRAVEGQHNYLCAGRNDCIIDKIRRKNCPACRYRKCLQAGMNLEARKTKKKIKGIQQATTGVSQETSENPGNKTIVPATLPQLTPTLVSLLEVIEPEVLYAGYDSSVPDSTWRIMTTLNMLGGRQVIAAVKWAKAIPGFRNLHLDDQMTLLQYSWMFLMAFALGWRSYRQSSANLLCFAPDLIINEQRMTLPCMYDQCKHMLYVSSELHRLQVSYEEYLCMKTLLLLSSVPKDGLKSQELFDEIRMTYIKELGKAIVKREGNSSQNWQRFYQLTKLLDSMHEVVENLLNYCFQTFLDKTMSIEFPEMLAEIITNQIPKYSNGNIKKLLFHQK
Briefly: In vitro functional glucocorticoid assays, metabolite versus parent. Format: cell-based. The procedure: Compound (I) wherein R represents furan-2-yl undergoes highly efficient hepatic metabolism to yield the 17-β carboxylic acid (X) as the sole major metabolite in rat and human in vitro systems. […] Pharmacological activity was assessed in a functional in vitro assay of glucocorticoid agonist activity which is generally predictive of anti-inflammatory or anti-allergic activity in vivo.

A short description of series [4]: Solubility in water with surfactants and co-solvating agents. Format: physicochemical. The text has this: As noted above, this improved process permits solutions of higher concentration to be prepared than is possible by conventional techniques.
A short description of series [5]: Pharmacokinetics after intravenous and oral dosing in rats. It is filed as in vivo. The note with it: male, Wistar Han, plasma, rat; for clearance: IV 0.1 mg/kg.
A short description of series [6]: Pharmacokinetics after intra-tracheal dry powder dosing in the pig. Format: in vivo. The note with it: for time after dosing up to which quantifiable in plasma / Cmax / AUC(0-inf): pig; for time after dosing up to which quantifiable in plasma: intra-tracheal 1 mg, LLOQ 10 and 20 pg/mL; for Cmax / AUC(0-inf): plasma, 1 mg; for Cmax: inhaled or intranasal; for AUC(0-inf): iv, compound (I) calculated with IV half-life. How it is done: Serial blood samples were taken for up to 8 h following dosing.

In series [7] the test system is thymus involution. The series can be described thus: Rat model of thymus involution. It is filed as in vivo. The note with it: 3 daily IT doses of 100 μg.
Series [8] can be described thus: Pharmacokinetics after intravenous administration in the anaesthetised pig. Format: in vivo. The conditions noted are these: intravenous mixture of the two compounds at 0.1 mg/kg. The text has this: The clearance of these two glucocorticoids is similar is this experimental pig model.
The test system of series [9] is lung eosinophilia. Briefly: Ovalbumin sensitised Brown Norway rat eosinophilia model. It is filed as in vivo. The conditions noted are these: single intra-tracheal dose of 30 μg, suspension in saline, 30 min prior to ovalbumin challenge. How it is done:
Pharmacological activity in vivo was assessed in an-ovalbumin sensitised Brown Norway rat eosinophilia model. This model is designed to mimic allergen induced lung eosinophilia, a major component of lung inflammation in asthma.

[10] abbreviates: 5% Tyloxapol, aqueous with cosolvent or surfactant or cyclodextrin, 5% Tyloxapol, process performed at 60-70° C., read-out: solubility.
Setting [11] is: 5% Tyloxapol, aqueous with cosolvent or surfactant or cyclodextrin, 5% Tyloxapol, process performed at room temperature, read-out: solubility.
Where [12] appears, read: water, aqueous with cosolvent or surfactant or cyclodextrin, in water, Triton X-100 2% w/w, read-out: Solubility.
[13] abbreviates: water, aqueous with cosolvent or surfactant or cyclodextrin, in water, Tyloxapol 2% w/w, read-out: Solubility.
The mark [14] stands for this setting: water, aqueous with cosolvent or surfactant or cyclodextrin, in water, Tyloxapol 5% w/w and PEG200 10% w/w, read-out: Solubility.
[15] abbreviates: water, aqueous with cosolvent or surfactant or cyclodextrin, in water, Tyloxapol 5% w/w, read-out: Solubility.
The mark [16] stands for this setting: water, in water, no surfactant, read-out: Solubility.
The mark [17] stands for this setting: Pig 1, intra-tracheal dry powder 1 mg.
[18] abbreviates: Pig 2, intra-tracheal dry powder 1 mg.

Molecules are shown by their SMILES. ≈ marks a conversion by molar mass, not a printed value. Entries after “also recorded” stand apart in the source; their conditions may differ. Where two headings read alike, the source gives them in different places.

For `C[C@@H]1CC2C3C[C@H](F)C4=CC(=O)C=C[C@]4(C)[C@@]3(F)[C@@H](O)C[C@]2(C)[C@@]1(OC(=O)c1ccco1)C(=O)O` (stereo partly shown) [Metabolite (X)], the EC50 in [1] is less than 250 nM; in series [2] it was greater than 1000 nM. In addition, the “fold less active than the parent compound” value in series [3] was greater than 1000 fold.
Turning to `CCC(=O)O[C@]1(C(=O)SCF)[C@H](C)C[C@H]2[C@@H]3C[C@H](F)C4=CC(=O)C=C[C@]4(C)[C@@]3(F)[C@@H](O)C[C@@]21C` [Fluticasone propionate, 6α, 9α-Difluoro-17α-(1-oxopropoxy)-11β-hydroxy-16α-methyl-3-oxo-androsta-1,4-diene-17-0-carbothioic acid S-fluoromethyl ester, reference compound], the solubility in series [4] (setting [10]) is 133 µg/mL (≈ 266 µM); in series [4] (setting [11]), 87 µg/mL (≈ 174 µM); in series [4] (in water, Labrasol 10% w/w), “None detected”; in [4] (in water, Triton X-45 5% w/w) it was “None detected”; in [4] (water, aqueous with cosolvent or surfactant or cyclodextrin, in water, Sodium chenodesoxycholate 5% w/w, read-out: Solubility), 5.9 µg/mL (≈ 11.8 µM); in series [4] (water, aqueous with cosolvent or surfactant or cyclodextrin, in water, Sodium cholate 2% w/w, read-out: Solubility), 11 µg/mL (≈ 22 µM). Moreover, the solubility in series [4] (water, aqueous with cosolvent or surfactant or cyclodextrin, in water, Sodium cholate 20% w/w, read-out: Solubility) was 140 µg/mL (≈ 280 µM); in series [4] (setting [12]), 69 µg/mL (≈ 138 µM); in series [4] (setting [13]), 41 µg/mL (≈ 81.9 µM); in series [4] (setting [14]), 207 µg/mL (≈ 414 µM); in [4] (water, aqueous with cosolvent or surfactant or cyclodextrin, in water, Tyloxapol 5% w/w and Phospatidyl choline 1% w/w, read-out: Solubility), 197 µg/mL (≈ 394 µM); in series [4] (setting [15]), 133 µg/mL (≈ 266 µM). Moreover, the solubility in series [4] (setting [16]) was less than 1 µg/mL. In addition, in [5], the clearance came out at 45.2 mL/min/kg. In addition, in series [6], the “time after dosing up to which quantifiable in plasma” value is “up to 8 hours”. Moreover, the Cmax in [6] (setting [17]) was determined as 0.277 ng/mL; in series [6] (setting [18]), 0.218 ng/mL. Also, the AUC(0-inf) in series [6] (setting [17]) is 0.455 ng·h/mL; in series [6] (setting [18]), 0.495 ng·h/mL. Further, the “reduction of thymus weight” value in series [7] was 78%. Moreover, the “pharmacokinetic parameters, compound (I) versus fluticasone propionate” value in [8] was “the same”.
For the compound `C[C@@H]1C[C@H]2[C@@H]3C[C@H](F)C4=CC(=O)C=C[C@]4(C)[C@@]3(F)[C@@H](O)C[C@]2(C)[C@@]1(OC(=O)c1ccco1)C(=O)SCF` [Compound of Formula (I), 6α, 9α-difluoro-17α-[(2-furanylcarbonyl)oxy]-11β-hydroxy-16α-methyl-3-oxo-androsta-1,4-diene-17β-carbothioic acid S-fluoromethyl ester], the solubility in series [4] (setting [10]) was determined as 344 µg/mL; in [4] (setting [11]) it was 233 µg/mL; in [4] (water, aqueous with cosolvent or surfactant or cyclodextrin, in water, Triton X-100 0.5% w/w, read-out: Solubility), 18 µg/mL; in series [4] (setting [12]), 266 µg/mL; in series [4] (water, aqueous with cosolvent or surfactant or cyclodextrin, in water, Triton X-100 5% w/w and PEG200 10% w/w, read-out: Solubility), 840 µg/mL; in [4] (water, aqueous with cosolvent or surfactant or cyclodextrin, in water, Triton X-100 5% w/w, read-out: Solubility), 549 µg/mL. Also, the solubility was 204 µg/mL in series [4] (water, aqueous with cosolvent or surfactant or cyclodextrin, in water, Triton X-305 5% w/w, read-out: Solubility); 95 µg/mL in series [4] (setting [13]); 526 µg/mL in [4] (water, aqueous with cosolvent or surfactant or cyclodextrin, in water, Tyloxapol 5% w/w and Dextrose 4% w/w, read-out: Solubility); 836 µg/mL in series [4] (setting [14]); 422 µg/mL in series [4] (water, aqueous with cosolvent or surfactant or cyclodextrin, in water, Tyloxapol 5% w/w and Propylene glycol 10% w/w, read-out: Solubility); 344 µg/mL in series [4] (water, aqueous with cosolvent or surfactant or cyclodextrin, in water, Tyloxapol 5% w/w, no co-solvating agent, read-out: Solubility). In addition, the solubility in series [4] (setting [15]) is 307 µg/mL; in [4] (water, aqueous with cosolvent or surfactant or cyclodextrin, in water, Tyloxapol 6% w/w, read-out: Solubility), 346 µg/mL; in [4] (water, aqueous with cosolvent or surfactant or cyclodextrin, in water, Tyloxapol 7.5% w/w, read-out: Solubility) it was 576 µg/mL; in [4] (water, aqueous with cosolvent or surfactant or cyclodextrin, in water, Tyloxapol 10% w/w, read-out: Solubility) it was 585 µg/mL; in series [4] (setting [16]), less than 1 µg/mL. This compound also registered a clearance in series [5] of 47.3 mL/min/kg. Also, the bioavailability in [5] (oral, 0.1 mg/kg, oral 0.1 mg/kg and IV 0.1 mg/kg) stood at 0.9%. Also, in [6] (anaesthetised pigs, dry powder delivery to the lungs), the “systemic exposure compared to fluticasone propionate” value is “markedly reduced systemic exposure; also recorded: significantly lower exposure”. Also, in [6], the “time after dosing up to which quantifiable in plasma” value was “up to 2 hours”. For the same compound, the Cmax in series [6] (setting [17]) amounted to 0.117 ng/mL; in [6] (setting [18]), 0.081 ng/mL. Besides, the AUC(0-inf) in series [6] (setting [17]) is 0.254 ng·h/mL; in series [6] (setting [18]), 0.221 ng·h/mL. Also, the “reduction of thymus weight” value in [7] is 67%. Also, in series [8], the “pharmacokinetic parameters, compound (I) versus fluticasone propionate” value is “the same”. Besides, the “inhibition of lung eosinophilia” value in series [9] is recorded as 69%.

Broadly, the solubility is the dissolved amount per volume that the medium holds. By Cmax is commonly meant the highest concentration seen after dosing. As usually defined, the AUC(0-inf) is the area under the concentration-time curve extrapolated to infinity. What is called bioavailability is dose-corrected exposure relative to a reference, in per cent. Low readings indicate poor availability, high ones good availability.
